Key:
[1] = target: 5-hydroxytryptamine receptor 2B (Homo sapiens, UniProt P41595); type: functional, cell-based
[2] = target: T1, Alpha-2A adrenergic receptor (Homo sapiens, UniProt P08913); type: functional, cell-based
T1 sequence (P08913 whole entry): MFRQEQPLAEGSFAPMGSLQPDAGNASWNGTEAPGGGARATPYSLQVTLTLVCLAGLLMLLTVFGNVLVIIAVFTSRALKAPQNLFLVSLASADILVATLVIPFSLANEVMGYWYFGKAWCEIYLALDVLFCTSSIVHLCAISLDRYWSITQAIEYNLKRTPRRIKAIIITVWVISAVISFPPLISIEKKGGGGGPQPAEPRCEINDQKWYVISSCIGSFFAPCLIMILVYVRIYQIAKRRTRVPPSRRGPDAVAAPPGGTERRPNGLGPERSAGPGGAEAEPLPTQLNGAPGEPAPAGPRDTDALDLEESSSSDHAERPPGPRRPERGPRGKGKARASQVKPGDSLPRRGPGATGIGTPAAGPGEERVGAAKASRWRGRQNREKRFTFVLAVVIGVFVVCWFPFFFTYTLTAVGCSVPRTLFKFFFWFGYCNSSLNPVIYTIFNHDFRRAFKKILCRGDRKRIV

[3] = target: cGMP-inhibited 3',5'-cyclic phosphodiesterase 3A (Homo sapiens, UniProt Q14432); type: functional
[4] = target: T2, Androgen receptor (Homo sapiens, UniProt P10275)
T2 sequence (P10275 whole entry): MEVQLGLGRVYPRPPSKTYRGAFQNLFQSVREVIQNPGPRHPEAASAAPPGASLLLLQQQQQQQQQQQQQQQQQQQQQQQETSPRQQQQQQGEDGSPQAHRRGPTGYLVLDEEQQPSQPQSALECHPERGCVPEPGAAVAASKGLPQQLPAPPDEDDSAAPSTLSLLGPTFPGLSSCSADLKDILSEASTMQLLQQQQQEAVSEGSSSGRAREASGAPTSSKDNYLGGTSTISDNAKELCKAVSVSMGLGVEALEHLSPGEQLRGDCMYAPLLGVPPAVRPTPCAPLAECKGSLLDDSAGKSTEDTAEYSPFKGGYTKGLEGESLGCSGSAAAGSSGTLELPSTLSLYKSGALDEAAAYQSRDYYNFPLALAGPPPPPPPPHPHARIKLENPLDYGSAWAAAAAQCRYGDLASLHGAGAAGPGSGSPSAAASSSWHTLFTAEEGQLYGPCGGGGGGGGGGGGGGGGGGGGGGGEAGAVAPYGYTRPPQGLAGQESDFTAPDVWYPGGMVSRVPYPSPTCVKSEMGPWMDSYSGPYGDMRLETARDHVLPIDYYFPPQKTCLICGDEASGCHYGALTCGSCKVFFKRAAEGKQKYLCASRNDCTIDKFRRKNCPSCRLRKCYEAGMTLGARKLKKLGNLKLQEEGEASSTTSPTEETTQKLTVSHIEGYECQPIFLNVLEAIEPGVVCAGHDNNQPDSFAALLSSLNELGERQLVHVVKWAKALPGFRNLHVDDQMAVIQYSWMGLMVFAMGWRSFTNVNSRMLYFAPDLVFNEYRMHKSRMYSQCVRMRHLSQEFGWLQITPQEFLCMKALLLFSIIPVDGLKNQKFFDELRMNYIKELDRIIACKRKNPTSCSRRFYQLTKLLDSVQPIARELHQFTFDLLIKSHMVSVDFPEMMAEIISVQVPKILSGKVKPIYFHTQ

[5] = target: 3',5'-cyclic-AMP phosphodiesterase 4D (Homo sapiens, UniProt Q08499); type: functional
[6] = target: Beta-2 adrenergic receptor (Homo sapiens, UniProt P07550); type: functional, cell-based
[7] = target: Vascular endothelial growth factor receptor 2 (Homo sapiens, UniProt P35968); type: functional
[8] = target: Vasopressin V1a receptor (Homo sapiens, UniProt P37288)
[9] = target: T3, Endothelin-1 receptor (Homo sapiens, UniProt P25101)
T3 sequence (P25101 whole entry): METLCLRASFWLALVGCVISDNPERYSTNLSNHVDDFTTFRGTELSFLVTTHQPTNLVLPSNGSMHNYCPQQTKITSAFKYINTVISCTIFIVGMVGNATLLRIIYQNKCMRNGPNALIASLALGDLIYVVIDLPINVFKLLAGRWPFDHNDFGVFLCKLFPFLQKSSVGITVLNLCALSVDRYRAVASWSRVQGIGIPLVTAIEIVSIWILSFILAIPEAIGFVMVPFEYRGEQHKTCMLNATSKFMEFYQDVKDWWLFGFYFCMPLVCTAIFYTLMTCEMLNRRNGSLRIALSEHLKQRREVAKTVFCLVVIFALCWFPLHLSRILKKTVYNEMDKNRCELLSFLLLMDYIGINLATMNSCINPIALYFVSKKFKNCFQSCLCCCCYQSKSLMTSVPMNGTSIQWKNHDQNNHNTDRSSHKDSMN

[10] = target: T4, Adenosine receptor A3 (Homo sapiens, UniProt P0DMS8)
T4 sequence (P0DMS8 whole entry): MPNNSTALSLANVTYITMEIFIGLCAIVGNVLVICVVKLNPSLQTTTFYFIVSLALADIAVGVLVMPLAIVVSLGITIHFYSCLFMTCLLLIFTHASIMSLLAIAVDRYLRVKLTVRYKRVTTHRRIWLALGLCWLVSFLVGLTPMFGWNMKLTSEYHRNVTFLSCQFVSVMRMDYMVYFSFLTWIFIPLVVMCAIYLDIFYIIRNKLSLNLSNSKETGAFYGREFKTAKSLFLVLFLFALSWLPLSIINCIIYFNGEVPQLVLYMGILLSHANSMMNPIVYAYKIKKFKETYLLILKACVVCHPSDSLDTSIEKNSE

[11] = target: T5, Equilibrative nucleoside transporter 1 (Homo sapiens, UniProt Q99808)
T5 sequence (Q99808 whole entry): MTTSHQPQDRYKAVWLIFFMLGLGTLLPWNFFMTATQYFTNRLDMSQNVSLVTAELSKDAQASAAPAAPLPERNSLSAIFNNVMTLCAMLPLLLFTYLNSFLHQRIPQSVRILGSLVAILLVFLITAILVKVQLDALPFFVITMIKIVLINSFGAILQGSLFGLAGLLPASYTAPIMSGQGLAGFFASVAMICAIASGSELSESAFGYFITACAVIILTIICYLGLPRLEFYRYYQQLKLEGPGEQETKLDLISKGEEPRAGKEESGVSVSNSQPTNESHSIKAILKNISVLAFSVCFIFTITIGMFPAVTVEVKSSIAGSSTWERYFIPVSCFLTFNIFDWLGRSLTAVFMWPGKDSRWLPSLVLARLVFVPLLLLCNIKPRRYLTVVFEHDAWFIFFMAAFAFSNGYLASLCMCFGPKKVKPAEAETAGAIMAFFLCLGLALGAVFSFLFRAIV
Further: assay procedure not described here.

5-hydroxytryptamine receptor 2B, sequence (P41595 whole entry): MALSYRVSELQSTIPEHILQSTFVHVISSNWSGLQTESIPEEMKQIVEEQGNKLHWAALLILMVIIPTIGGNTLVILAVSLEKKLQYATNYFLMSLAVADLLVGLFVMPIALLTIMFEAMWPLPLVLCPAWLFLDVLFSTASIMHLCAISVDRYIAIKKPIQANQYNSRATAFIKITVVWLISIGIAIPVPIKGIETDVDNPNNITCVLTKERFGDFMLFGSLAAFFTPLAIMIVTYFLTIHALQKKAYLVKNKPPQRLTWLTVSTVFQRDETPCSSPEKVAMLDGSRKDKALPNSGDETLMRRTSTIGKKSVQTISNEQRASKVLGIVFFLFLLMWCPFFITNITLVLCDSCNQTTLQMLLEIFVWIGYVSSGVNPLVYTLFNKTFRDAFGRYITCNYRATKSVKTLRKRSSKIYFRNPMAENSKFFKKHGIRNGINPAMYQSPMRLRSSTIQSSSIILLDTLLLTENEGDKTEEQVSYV
Beta-2 adrenergic receptor, sequence (P07550 whole entry): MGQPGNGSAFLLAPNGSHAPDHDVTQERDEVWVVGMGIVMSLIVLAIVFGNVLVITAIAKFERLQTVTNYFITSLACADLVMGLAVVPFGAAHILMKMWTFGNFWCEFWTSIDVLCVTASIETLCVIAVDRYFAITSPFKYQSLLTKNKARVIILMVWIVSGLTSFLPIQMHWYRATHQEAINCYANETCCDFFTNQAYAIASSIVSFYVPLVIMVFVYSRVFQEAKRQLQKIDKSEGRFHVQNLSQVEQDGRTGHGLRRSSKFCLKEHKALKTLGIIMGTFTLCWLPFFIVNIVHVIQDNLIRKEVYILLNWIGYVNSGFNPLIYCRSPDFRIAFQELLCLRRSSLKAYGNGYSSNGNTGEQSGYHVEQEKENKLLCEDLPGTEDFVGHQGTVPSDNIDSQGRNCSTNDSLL
cGMP-inhibited 3',5'-cyclic phosphodiesterase 3A, sequence (Q14432 whole entry): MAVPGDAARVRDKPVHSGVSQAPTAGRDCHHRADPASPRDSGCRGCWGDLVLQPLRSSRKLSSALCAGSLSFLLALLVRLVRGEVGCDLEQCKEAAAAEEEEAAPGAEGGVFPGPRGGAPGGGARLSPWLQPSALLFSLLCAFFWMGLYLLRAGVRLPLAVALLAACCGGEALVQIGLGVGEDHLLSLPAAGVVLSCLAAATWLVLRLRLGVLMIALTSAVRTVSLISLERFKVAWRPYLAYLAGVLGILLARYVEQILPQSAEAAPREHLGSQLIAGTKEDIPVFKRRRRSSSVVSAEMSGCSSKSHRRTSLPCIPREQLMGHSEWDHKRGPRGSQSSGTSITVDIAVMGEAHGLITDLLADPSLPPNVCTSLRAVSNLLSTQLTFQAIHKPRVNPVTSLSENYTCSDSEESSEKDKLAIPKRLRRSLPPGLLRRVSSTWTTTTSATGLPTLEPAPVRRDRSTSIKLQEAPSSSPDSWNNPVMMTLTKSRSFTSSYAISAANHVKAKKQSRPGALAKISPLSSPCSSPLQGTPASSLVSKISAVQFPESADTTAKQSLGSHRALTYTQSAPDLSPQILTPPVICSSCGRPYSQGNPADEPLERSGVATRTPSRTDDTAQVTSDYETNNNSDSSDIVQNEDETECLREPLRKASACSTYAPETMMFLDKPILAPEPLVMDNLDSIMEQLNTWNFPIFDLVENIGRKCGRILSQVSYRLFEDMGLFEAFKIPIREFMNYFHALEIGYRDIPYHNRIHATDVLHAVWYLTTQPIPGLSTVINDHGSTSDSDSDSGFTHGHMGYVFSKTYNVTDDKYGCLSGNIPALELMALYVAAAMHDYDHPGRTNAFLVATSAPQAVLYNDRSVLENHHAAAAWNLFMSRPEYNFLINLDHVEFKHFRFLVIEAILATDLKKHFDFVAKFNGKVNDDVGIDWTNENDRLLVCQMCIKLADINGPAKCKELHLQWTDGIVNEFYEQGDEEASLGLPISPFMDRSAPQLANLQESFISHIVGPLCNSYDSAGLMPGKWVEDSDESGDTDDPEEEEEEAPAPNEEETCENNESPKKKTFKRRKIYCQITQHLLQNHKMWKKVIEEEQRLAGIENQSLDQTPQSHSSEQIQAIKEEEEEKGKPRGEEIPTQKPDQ
3',5'-cyclic-AMP phosphodiesterase 4D, sequence (Q08499 whole entry): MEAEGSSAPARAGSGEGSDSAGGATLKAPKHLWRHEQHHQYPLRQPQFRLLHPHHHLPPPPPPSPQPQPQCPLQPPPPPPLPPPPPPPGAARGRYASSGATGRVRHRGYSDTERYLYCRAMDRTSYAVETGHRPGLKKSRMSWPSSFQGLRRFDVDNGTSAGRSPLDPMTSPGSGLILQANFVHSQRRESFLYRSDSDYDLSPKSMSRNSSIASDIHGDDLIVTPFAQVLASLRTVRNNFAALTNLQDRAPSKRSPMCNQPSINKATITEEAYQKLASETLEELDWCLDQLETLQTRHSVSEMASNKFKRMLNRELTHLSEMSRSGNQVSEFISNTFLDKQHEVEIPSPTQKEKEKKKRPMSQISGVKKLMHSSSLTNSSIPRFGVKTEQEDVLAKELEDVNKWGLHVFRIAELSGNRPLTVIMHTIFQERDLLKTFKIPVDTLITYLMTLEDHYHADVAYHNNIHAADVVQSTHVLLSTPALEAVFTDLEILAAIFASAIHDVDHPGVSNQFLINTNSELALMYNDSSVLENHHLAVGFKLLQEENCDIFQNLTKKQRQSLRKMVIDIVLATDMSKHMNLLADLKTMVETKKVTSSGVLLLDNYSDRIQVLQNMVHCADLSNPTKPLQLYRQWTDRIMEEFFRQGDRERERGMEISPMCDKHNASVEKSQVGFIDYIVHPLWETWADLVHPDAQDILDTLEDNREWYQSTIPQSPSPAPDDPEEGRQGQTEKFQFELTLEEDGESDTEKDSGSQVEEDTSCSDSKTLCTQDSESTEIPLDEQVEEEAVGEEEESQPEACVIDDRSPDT
Vasopressin V1a receptor, sequence (P37288 whole entry): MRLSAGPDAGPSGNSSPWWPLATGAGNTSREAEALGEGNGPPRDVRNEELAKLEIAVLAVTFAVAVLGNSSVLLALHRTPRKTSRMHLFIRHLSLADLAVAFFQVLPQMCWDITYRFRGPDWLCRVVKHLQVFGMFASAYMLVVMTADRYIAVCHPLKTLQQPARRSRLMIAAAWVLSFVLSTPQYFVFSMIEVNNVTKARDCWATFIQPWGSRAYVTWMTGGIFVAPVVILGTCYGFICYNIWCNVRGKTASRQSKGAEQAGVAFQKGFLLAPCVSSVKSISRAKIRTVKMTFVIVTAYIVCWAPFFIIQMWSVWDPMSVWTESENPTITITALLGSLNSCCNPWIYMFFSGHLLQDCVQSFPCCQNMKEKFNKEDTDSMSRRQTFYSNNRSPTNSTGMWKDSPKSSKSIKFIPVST
Vascular endothelial growth factor receptor 2, sequence (P35968 whole entry): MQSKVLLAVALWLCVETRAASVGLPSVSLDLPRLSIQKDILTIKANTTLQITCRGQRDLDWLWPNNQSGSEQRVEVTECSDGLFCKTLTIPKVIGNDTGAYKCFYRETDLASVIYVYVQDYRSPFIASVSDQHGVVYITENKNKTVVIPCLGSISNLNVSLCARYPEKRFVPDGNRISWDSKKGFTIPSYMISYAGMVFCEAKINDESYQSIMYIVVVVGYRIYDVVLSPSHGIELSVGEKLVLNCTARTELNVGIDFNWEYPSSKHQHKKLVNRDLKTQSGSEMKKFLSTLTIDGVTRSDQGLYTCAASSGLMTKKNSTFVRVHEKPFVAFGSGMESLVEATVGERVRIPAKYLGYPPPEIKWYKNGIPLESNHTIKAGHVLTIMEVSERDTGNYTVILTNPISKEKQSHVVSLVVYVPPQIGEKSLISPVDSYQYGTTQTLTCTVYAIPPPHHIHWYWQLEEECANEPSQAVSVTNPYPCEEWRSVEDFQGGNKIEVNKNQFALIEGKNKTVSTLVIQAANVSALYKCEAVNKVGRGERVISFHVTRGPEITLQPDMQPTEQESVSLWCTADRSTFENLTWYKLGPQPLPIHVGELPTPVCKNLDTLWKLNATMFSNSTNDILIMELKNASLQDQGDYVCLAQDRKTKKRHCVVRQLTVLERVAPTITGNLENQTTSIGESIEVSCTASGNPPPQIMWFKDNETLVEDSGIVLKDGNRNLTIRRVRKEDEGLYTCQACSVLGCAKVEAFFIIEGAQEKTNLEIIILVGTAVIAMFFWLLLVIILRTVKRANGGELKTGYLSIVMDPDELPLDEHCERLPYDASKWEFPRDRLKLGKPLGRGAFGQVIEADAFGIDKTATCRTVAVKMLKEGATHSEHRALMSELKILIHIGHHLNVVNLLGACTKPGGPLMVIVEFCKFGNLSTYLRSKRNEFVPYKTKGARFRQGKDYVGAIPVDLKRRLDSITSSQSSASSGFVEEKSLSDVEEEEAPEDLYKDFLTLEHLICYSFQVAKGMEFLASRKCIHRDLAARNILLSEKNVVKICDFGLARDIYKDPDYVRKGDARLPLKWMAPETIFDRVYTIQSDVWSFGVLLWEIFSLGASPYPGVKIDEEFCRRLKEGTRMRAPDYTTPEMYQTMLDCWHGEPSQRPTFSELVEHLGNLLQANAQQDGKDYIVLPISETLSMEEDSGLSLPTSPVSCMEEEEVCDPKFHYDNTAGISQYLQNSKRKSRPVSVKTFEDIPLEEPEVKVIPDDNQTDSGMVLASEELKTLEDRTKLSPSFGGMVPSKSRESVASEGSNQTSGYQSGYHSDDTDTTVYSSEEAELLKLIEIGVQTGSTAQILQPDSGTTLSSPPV

| SMILES | AC50 [1] [µM] | AC50 [2] [µM] | AC50 [3] [µM] | AC50 [4] [µM] | AC50 [5] [µM] | AC50 [6] [µM] | AC50 [7] [µM] | AC50 [8] [µM] | AC50 [9] [µM] | AC50 [10] [µM] | AC50 [11] [µM] |
| --- | --- | --- | --- | --- | --- | --- | --- | --- | --- | --- | --- |
| CC(C)NC(=N)NC(=N)Nc1ccc(Cl)c(Cl)c1 [CHLORPROGUANIL] | 12.2 | > 30 | > 30 | > 30 | > 30 | > 30 | – | – | – | – | – |
| C[N+](C)(C)CCOP(=O)(O)OP(=O)([O-])OC[C@H]1O[C@@H](n2ccc(N)nc2=O)[C@H](O)[C@@H]1O [CITICOLINE] | > 30 | > 30 | > 30 | > 30 | > 30 | > 30 | – | – | – | – | – |
| O=C(O)Cc1ccccc1Nc1c(Cl)cccc1Cl [DICLOFENAC] | > 10 | > 10 | > 30 | > 3 | > 30 | > 30 | > 3 | > 30 | > 30 | > 3 | > 30 |
| Cc1ccc(C)c(OCCCC(C)(C)C(=O)O)c1 [GEMFIBROZIL] | 4.4 | > 10 | > 30 | > 30 | > 30 | > 30 | > 30 | > 10 | > 30 | > 30 | > 30 |

From ChEMBL document CHEMBL5291721, “A preclinical secondary pharmacology resource illuminates target-adverse drug reaction associations of marketed drugs” (Nat Commun, 2023)
